Seven cell lines from the supplement of paper PMC9663587 can be followed below.

Compound in one assay: CC(=O)c1c(C)c2cnc(Nc3ccc(N4CCN(CCOCCOCCOCCNC(=O)COc5cccc6c5C(=O)N(C5CCC(=O)NC5=O)C6=O)CC4)cn3)nc2n(C2CCCC2)c1=O [BSJ-03-123]
The experiment in a line: GR value, 72 h; higher = faster growth (1 = untreated, <0 = killing).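 Further: breast cancer and non-malignant breast epithelial lines, nine half-log doses, viable cells counted by Hoechst and LIVE/DEAD dye imaging versus time-zero plates and DMSO controls.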 Particulars: 0.001 µM.
As for PDX1206, the GR value was determined as 1.02 GR.
As to PDX1328, the GR value was found to be 0.951 GR.

The same assay, now with this note: 0.003162 µM.
For the cell line 184A1, the GR value was determined as 0.636 GR.
Take AU565: the GR value was 0.875 GR.
In the case of HCC1187, the GR value amounted to 0.865 GR.
For HTERT_HME1, the GR value worked out at 0.87 GR.
The same measure, in the same setting: next, MCF10A (GM): 0.952 GR; PDX1206: 0.915 GR.
PDX1328: the GR value was found to be 0.816 GR.

Staying with this assay, now noted: 0.01 µM.
For 184A1, the GR value is 0.521 GR.
In the case of AU565, the GR value is 0.791 GR.
Turning to HCC1187, the GR value stood at 0.969 GR.
With HTERT_HME1, the GR value was found to be 0.78 GR.
On the same count and under the same terms, next, MCF10A (GM): 0.879 GR; PDX1206: 0.885 GR.
For the cell line PDX1328, the GR value turned out to be 0.819 GR.

Staying with this assay, now noted: 0.03162 µM.
In the case of 184A1, the GR value came out at 0.296 GR.
On to AU565, for which the GR value was 0.759 GR.
HCC1187: the GR value stood at 0.935 GR.
For HTERT_HME1, the GR value was found to be 0.635 GR.
Same read-out and setting: with MCF10A (GM) the figure was 0.859 GR.
On to PDX1206, for which the GR value is 0.967 GR.
As for PDX1328, the GR value came out at 0.792 GR.

Still in this assay, the particulars now being: 0.1 µM.
For 184A1, the GR value worked out at 0.243 GR.
Turning to AU565, the GR value stood at 0.833 GR.
As for HCC1187, the GR value was found to be 0.956 GR.
For HTERT_HME1, the GR value is 0.702 GR.
Take MCF10A (GM): the GR value amounted to 0.884 GR.
With PDX1206, the GR value stood at 0.904 GR.
As to PDX1328, the GR value turned out to be 0.852 GR.

The assay is the same for the next values; noted with them: 0.3162 µM.
Turning to 184A1, the GR value was determined as 0.145 GR.
On to AU565, for which the GR value was found to be 0.775 GR.
Take HCC1187: the GR value was 0.882 GR.
As for HTERT_HME1, the GR value stood at 0.551 GR.
As to MCF10A (GM), the GR value was 0.795 GR.
In the case of PDX1206, the GR value is 0.912 GR.
Still for that read-out and setting: next, PDX1328: 0.646 GR.

Staying with this assay, now noted: 1 µM.
For the cell line 184A1, the GR value worked out at 0.114 GR.
Take AU565: the GR value worked out at 0.41 GR.
With HCC1187, the GR value came to 0.743 GR.
Consider HTERT_HME1, for which the GR value came to 0.386 GR.
With MCF10A (GM), the GR value turned out to be 0.658 GR.
On to PDX1206, for which the GR value turned out to be 0.782 GR.
Same read-out and setting: with PDX1328 the figure was 0.479 GR.

The same assay, now with this note: 3.162 µM.
Turning to 184A1, the GR value came out at 0.101 GR.
Regarding AU565, the GR value stood at 0.52 GR.
Turning to HCC1187, the GR value was determined as 0.621 GR.
As for HTERT_HME1, the GR value was 0.34 GR.
Consider MCF10A (GM), for which the GR value amounted to 0.549 GR.
With PDX1206, the GR value stood at 0.726 GR.
As for PDX1328, the GR value was determined as 0.531 GR.

The same assay, now with this note: 10 µM.
With 184A1, the GR value is -0.139 GR.
AU565: the GR value was -0.386 GR.
As to HCC1187, the GR value is -0.43 GR.
The same measure, in the same setting: with HTERT_HME1 the figure was -0.153 GR; with MCF10A (GM), -0.17 GR; with PDX1206, -0.109 GR.
PDX1328: the GR value was found to be 0.0901 GR.

Compound in a further assay: CC(=O)c1c(C)c2cnc(Nc3ccc(N4CCNCC4)cn3)nc2n(C2CCCC2)c1=O
The assay is described as above. Particulars: 0.0003162 µM.
For the cell line 184A1, the GR value was 1.04 GR.
Turning to AU565, the GR value worked out at 1.04 GR.
Regarding HCC1187, the GR value came out at 0.999 GR.
For the cell line HTERT_HME1, the GR value turned out to be 1.03 GR.
As to PDX1328, the GR value worked out at 1.04 GR.

Staying with this assay, now noted: 0.001 µM.
As for 184A1, the GR value worked out at 0.968 GR.
For AU565, the GR value amounted to 1.05 GR.
With HCC1187, the GR value came to 1.05 GR.
Regarding HTERT_HME1, the GR value stood at 1.06 GR.
In the case of PDX1328, the GR value was 1.1 GR.

Staying with this assay, now noted: 0.003162 µM.
Turning to 184A1, the GR value worked out at 0.963 GR.
For AU565, the GR value came to 1.01 GR.
With HCC1187, the GR value came out at 1.04 GR.
In the case of HTERT_HME1, the GR value was 1.03 GR.
With PDX1328, the GR value is 1.06 GR.

The assay is the same for the next values; noted with them: 0.01 µM.
As for 184A1, the GR value was found to be 0.848 GR.
With AU565, the GR value was found to be 0.919 GR.
Still for that read-out and setting: with HCC1187 the figure was 0.985 GR; with HTERT_HME1, 0.956 GR.
PDX1328: the GR value came to 0.938 GR.

The same assay, now with this note: 0.03162 µM.
As for 184A1, the GR value stood at 0.664 GR.
Same read-out and setting: with AU565 the figure was 0.73 GR; with HCC1187, 1.05 GR; with HTERT_HME1, 0.796 GR.
On to PDX1328, for which the GR value amounted to 0.751 GR.

Still in this assay, the particulars now being: 0.1 µM.
For 184A1, the GR value turned out to be 0.465 GR.
On the same count and under the same terms, with AU565 the figure was 0.579 GR; with HCC1187, 1.09 GR.
Still for that read-out and setting: with HTERT_HME1 the figure was 0.615 GR; with PDX1328, 0.557 GR.

Still in this assay, the particulars now being: 0.3162 µM.
As to 184A1, the GR value turned out to be 0.324 GR.
Consider AU565, for which the GR value was found to be 0.39 GR.
As for HCC1187, the GR value stood at 1.02 GR.
As for HTERT_HME1, the GR value is 0.458 GR.
PDX1328: the GR value came out at 0.518 GR.

Still in this assay, the particulars now being: 1 µM.
As to 184A1, the GR value was 0.191 GR.
As for AU565, the GR value was 0.301 GR.
Consider HCC1187, for which the GR value is 1.09 GR.
Regarding HTERT_HME1, the GR value is 0.354 GR.
For the cell line PDX1328, the GR value turned out to be 0.414 GR.

Still in this assay, the particulars now being: 3.162 µM.
For 184A1, the GR value amounted to 0.128 GR.
For AU565, the GR value stood at 0.154 GR.
HCC1187: the GR value was 0.993 GR.
For the cell line HTERT_HME1, the GR value was determined as 0.235 GR.
Same read-out and setting: with PDX1328 the figure was 0.399 GR.

Compound in another assay: CCN1CCN(Cc2ccc(Nc3ncc(F)c(-c4cc(F)c5nc(C)n(C(C)C)c5c4)n3)nc2)CC1
Described as above. The settings on record: 0.001 µM.
184A1: the GR value was 0.939 GR.
With AU565, the GR value turned out to be 0.876 GR.
Consider HCC1187, for which the GR value worked out at 0.974 GR.
In the case of HTERT_HME1, the GR value was 1.05 GR.
With PDX1328, the GR value turned out to be 0.866 GR.

Still in this assay, the particulars now being: 0.003162 µM.
184A1: the GR value came out at 0.858 GR.
The same measure, in the same setting: with AU565 the figure was 0.791 GR; with HCC1187, 0.907 GR; with HTERT_HME1, 0.987 GR.
PDX1328: the GR value was 0.775 GR.

Staying with this assay, now noted: 0.01 µM.
On to 184A1, for which the GR value worked out at 0.69 GR.
In the case of AU565, the GR value stood at 0.605 GR.
Consider HCC1187, for which the GR value came out at 0.898 GR.
On to HTERT_HME1, for which the GR value came out at 0.867 GR.
Consider PDX1328, for which the GR value was determined as 0.537 GR.

The assay is the same for the next values; noted with them: 0.03162 µM.
As to 184A1, the GR value came to 0.413 GR.
The same measure, in the same setting: next, AU565: 0.382 GR; HCC1187: 0.971 GR.
As for HTERT_HME1, the GR value was 0.718 GR.
In the case of PDX1328, the GR value came out at 0.323 GR.

The assay is the same for the next values; noted with them: 0.1 µM.
As for 184A1, the GR value came to 0.267 GR.
Regarding AU565, the GR value came to 0.268 GR.
Turning to HCC1187, the GR value was found to be 1.01 GR.
Consider HTERT_HME1, for which the GR value came out at 0.588 GR.
